The text below walks through data of the supplement of paper PMC11616607.

Each structure is given as a SMILES string.

One experiment deals with HOSE1C. The experiment can be described thus: drug sensitivity score (DSS) from 5-point dose-response viability curve (DSS (area-under-curve based score)); higher = more sensitive (stronger growth inhibition or killing); extreme values may be limits of the assay. Particulars: exposure time: 72 h; concentration range: 5 concentrations over 10,000-fold range. Put shortly:
(§1)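 Ovarian cancer and normal ovarian cell lines were tested in 384-well plates, with drugs dispensed acoustically (Echo 550) in DMSO or water at five concentrations covering a 10,000-fold range. After 1,500 cells per well were added, plates were incubated for 3 days at 37°C and 5% CO2, and viability was read by CellTiter-Glo luminescence on a PHERAstar FS. Breeze software gave a drug sensitivity score for each cell line and drug, where a higher score means greater sensitivity. A value of zero means no response.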
Consider `COc1c(C)cnc(Cn2cnc3c(Cl)nc(N)nc32)c1C` [BIIB021], for which the drug sensitivity score came out at 15.
The same measure, in the same setting: the same measure for `CO[C@@H]1[C@H](N(C)C(=O)c2ccccc2)C[C@H]2O[C@]1(C)n1c3ccccc3c3c4c(c5c6ccccc6n2c5c31)C(=O)NC4` [Midostaurin]: 11.7.
Take `COc1ccc(S(=O)(=O)Nc2cccnc2Nc2ccc(O)cc2)cc1` [ABT-751]: the drug sensitivity score was 15.8.
As to `COc1cc2ncnc(Nc3cccc(Cl)c3F)c2cc1OC(=O)N1CCN(C)C[C@H]1C` [AZD3759], the drug sensitivity score was determined as 0.
Turning to `C[C@H]1CN(C2COC2)CCN1c1ccc(Nc2cc(-c3ccnc(N4CCn5c(cc6c5CC(C)(C)C6)C4=O)c3CO)cn(C)c2=O)nc1` [GDC-0853], the drug sensitivity score came to 0.
Same read-out and setting: the same measure for `CCCOc1ccn2c(C(C)=O)cc(-c3ccccc3S(C)(=O)=O)c2c1` [GSK2801]: 0; for `CC(C)N(CCCNC(=O)Nc1ccc(C(C)(C)C)cc1)C[C@H]1O[C@@H](n2cc(Br)c3c(N)ncnc32)[C@H](O)[C@@H]1O` [SGC0946]: 0; for `Cc1ccc(-n2nc(C(C)(C)C)cc2NC(=O)Nc2ccc(OCCN3CCOCC3)c3ccccc23)cc1` [Doramapimod]: 5.
The same measure, in the same setting: then `CO[C@@H](C)Cn1c(=O)n(C)c2cnc3ccc(-c4cncc(C(C)(C)O)c4)cc3c21`, with 15.1; and `C[C@@H]1C[C@H]2[C@@H]3CCC4=CC(=O)C=C[C@]4(C)[C@@]3(F)[C@@H](O)C[C@]2(C)[C@@]1(O)C(=O)CO` [Dexamethasone], with 0; and `CN1CCN(c2nc(C3=C(c4c[nH]c5ccccc45)C(=O)NC3=O)c3ccccc3n2)CC1` [Sotrastaurin], with 0.
Same read-out and setting: then `Cc1cc(F)c(C(=O)Nc2cccc(-c3nncn3C(C)C)n2)cc1-n1cnc(C2CC2)c1` [Selonsertib], with 0; and `O=C(/C=C\n1cnc(-c2cc(C(F)(F)F)cc(C(F)(F)F)c2)n1)NNc1ccccn1` [Verdinexor], with 22.2.
Take `Cn1nnc2c(C(N)=O)ncn2c1=O` [Temozolomide]: the drug sensitivity score worked out at 0.
Still for that read-out and setting: the same measure for `NC(=O)N1CCC(CC(=O)N2CCC([C@H]3c4ncc(Br)cc4CCc4cc(Cl)cc(Br)c43)CC2)CC1` [Lonafarnib]: 8.
On the same count and under the same terms, the same measure for `CCc1cnn2c(NCc3ccc[n+]([O-])c3)cc(N3CCCC[C@H]3CCO)nc12` [Dinaciclib]: 28; for `O=C(O)c1ccc(CN2CCC(CN[C@@H]3C[C@H]3c3ccccc3)CC2)cc1`: 0.
Same read-out and setting: then `CN1CCN(c2ccc(C(=O)Nc3n[nH]c4ccc(Cc5cc(F)cc(F)c5)cc34)c(NC3CCOCC3)c2)CC1` [Entrectinib], with 0.1; and `O=c1[nH]c(=O)n([C@H]2C[C@H](O)[C@@H](CO)O2)cc1C(F)(F)F` [Trifluridine], with 0; and `CCOC(=O)C1=CCCC[C@H]1S(=O)(=O)Nc1ccc(F)cc1Cl` [Resatorvid], with 0.
The molecule `CN(Cc1cnc2nc(N)nc(N)c2n1)c1ccc(C(=O)N[C@@H](CCC(=O)O)C(=O)O)cc1` [Methotrexate] gave a drug sensitivity score of 13.7.
Still for that read-out and setting: the same measure for `CN1CCN(C2CCC(n3cc(-c4ccc(Oc5ccccc5)cc4)c4c(N)ncnc43)CC2)CC1` (stereo unspecified): 7.8; for `COc1cc2nccc(Oc3ccc(NC(=O)Nc4cc(C)on4)c(Cl)c3)c2cc1OC` [Tivozanib]: 2.4.
On the same count and under the same terms, the same measure for `C[C@H]1C[C@@H](n2c(Nc3ccc(OC(F)(F)F)cc3)nc3cc(CCC(=O)O)ccc32)CC(C)(C)C1`: 0; for `CN1CCN(C2CCN(C(=O)Nc3cc(Oc4ccc(NC(=O)C5(C(=O)Nc6ccc(F)cc6)CC5)c(F)c4)ccn3)CC2)CC1` [Golvatinib]: 0.
The same measure, in the same setting: the same measure for `Cc1cc([C@@H](C)Nc2ccccc2C(=O)O)c2nc(N3CCOCC3)cc(=O)n2c1` [AZD-6482]: 0.3.
`CC1=C(/C=C/C(C)=C/C=C/C(C)=C/C(=O)O)C(C)(C)CCC1` [Tretinoin] had a drug sensitivity score of 0.
Still for that read-out and setting: the same measure for `CC[C@H](Nc1ncnc2[nH]cnc12)c1nc2cccc(F)c2c(=O)n1-c1ccccc1` [Idelalisib]: 0.1.
On the same count and under the same terms, the same measure for `O=c1[nH]cc(F)c(=O)[nH]1` [Fluorouracil]: 2.5; for `O=C(NOCCO)c1ccc2cncn2c1Nc1ccc(I)cc1F` [GDC-0623]: 0.
Same read-out and setting: then `CC(C)[C@H](C(=O)Nc1ccc(C(=O)NO)cc1)c1ccccc1` [AR-42], with 21.1.

The subject of a further experiment is HOSE2C. The description is as above. Particulars: exposure time: 72 h; concentration range: 5 concentrations over 10,000-fold range. Put shortly:
as §1
In the case of `COc1c(C)cnc(Cn2cnc3c(Cl)nc(N)nc32)c1C` [BIIB021], the drug sensitivity score stood at 20.5.
Still for that read-out and setting: then `CO[C@@H]1[C@H](N(C)C(=O)c2ccccc2)C[C@H]2O[C@]1(C)n1c3ccccc3c3c4c(c5c6ccccc6n2c5c31)C(=O)NC4` [Midostaurin], with 15.1.
The same measure, in the same setting: the same measure for `COc1ccc(S(=O)(=O)Nc2cccnc2Nc2ccc(O)cc2)cc1` [ABT-751]: 10.7.
On the same count and under the same terms, then `COc1cc2ncnc(Nc3cccc(Cl)c3F)c2cc1OC(=O)N1CCN(C)C[C@H]1C` [AZD3759], with 0; and `C[C@H]1CN(C2COC2)CCN1c1ccc(Nc2cc(-c3ccnc(N4CCn5c(cc6c5CC(C)(C)C6)C4=O)c3CO)cn(C)c2=O)nc1` [GDC-0853], with 0; and `CCCOc1ccn2c(C(C)=O)cc(-c3ccccc3S(C)(=O)=O)c2c1` [GSK2801], with 0.
The molecule `CC(C)N(CCCNC(=O)Nc1ccc(C(C)(C)C)cc1)C[C@H]1O[C@@H](n2cc(Br)c3c(N)ncnc32)[C@H](O)[C@@H]1O` [SGC0946] gave a drug sensitivity score of 0.
Still for that read-out and setting: then `Cc1ccc(-n2nc(C(C)(C)C)cc2NC(=O)Nc2ccc(OCCN3CCOCC3)c3ccccc23)cc1` [Doramapimod], with 2.9; and `CO[C@@H](C)Cn1c(=O)n(C)c2cnc3ccc(-c4cncc(C(C)(C)O)c4)cc3c21`, with 9.9.
The same measure, in the same setting: the same measure for `C[C@@H]1C[C@H]2[C@@H]3CCC4=CC(=O)C=C[C@]4(C)[C@@]3(F)[C@@H](O)C[C@]2(C)[C@@]1(O)C(=O)CO` [Dexamethasone]: 0; for `CN1CCN(c2nc(C3=C(c4c[nH]c5ccccc45)C(=O)NC3=O)c3ccccc3n2)CC1` [Sotrastaurin]: 0; for `Cc1cc(F)c(C(=O)Nc2cccc(-c3nncn3C(C)C)n2)cc1-n1cnc(C2CC2)c1` [Selonsertib]: 0.
Still for that read-out and setting: the same measure for `O=C(/C=C\n1cnc(-c2cc(C(F)(F)F)cc(C(F)(F)F)c2)n1)NNc1ccccn1` [Verdinexor]: 6.1; for `Cn1nnc2c(C(N)=O)ncn2c1=O` [Temozolomide]: 0.5.
Regarding `NC(=O)N1CCC(CC(=O)N2CCC([C@H]3c4ncc(Br)cc4CCc4cc(Cl)cc(Br)c43)CC2)CC1` [Lonafarnib], the drug sensitivity score worked out at 8.9.
